Test results as given in PubChem BioAssay AID1949 (Southern Research Institute, 2009).
Converted amounts (≈) assume the structure as drawn. Results filed as inconclusive are left out. The source made the active and inactive calls. No rule for the calls is given here.

Tested on: M. tuberculosis H37Rv growth inhibition
Assay: Mycobacterium tuberculosis H37Rv growth inhibition, cell based, confirmatory dose response (AID 1949);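 also: bacteria grown 7 days with compound before Alamar blue readout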

SMILES | IC50
Cc1ccc(NC(=O)C2C3CC/C=C\CC/C=C/CCC32)cc1C (stereo unspecified) | 23.6 µg/mL (≈ 72.8 µM)
Cc1ccc(Cc2ccc(C(=O)Nc3ccc(C)c(C)c3)o2)cc1 | 0.18 µg/mL (≈ 0.564 µM)
O=C(/C=C/c1cccc(C(F)(F)F)c1)Nc1ccc(Cl)cc1 | 5.09 µg/mL (≈ 15.6 µM)
O=C(Cc1ccccc1)NC(=S)Nc1ccc(Oc2ccccc2)cc1 | 7.61 µg/mL (≈ 21 µM)
Cc1cccc(-c2nnc(SCC(=O)NCCc3ccccc3)o2)c1 | 0.25 µg/mL (≈ 0.707 µM)
O=C1c2cccc3cccc(c23)C(=O)N1CC1CCN(CC(O)COc2ccc3ccccc3c2)CC1 (stereo unspecified) | 0.84 µg/mL (≈ 1.7 µM)
CCOc1ccc(OCC(=O)Nc2cc(C)cc(C)c2)cc1 | 1.51 µg/mL (≈ 5.04 µM)
CC(C)(C)c1ccc(C(=O)Nc2nc3ccccc3[nH]2)cc1 | < 0.1 µg/mL
CC(C)COCc1ccc(O)c2ncccc12 | > 50 µg/mL (inactive)
CCCCOc1ccc(NC2=NC3(CCCCC3)N=C(N)N2)cc1 | 12.1 µg/mL (≈ 36.6 µM)
COc1ccc(Cn2c(=O)c3c(n4cnnc24)-c2ccccc2CC32CCCCC2)cc1 | 2.84 µg/mL (≈ 6.66 µM)
CN1CCN(c2ccc(NC(=O)c3ccc(-c4cccc([N+](=O)[O-])c4)o3)cc2)CC1 | 8.66 µg/mL (≈ 21.3 µM)
CC1CCN(c2cc(/C=C(\C#N)c3nn(-c4ccccc4)c(N)c3C#N)c3ccccc3n2)CC1 | > 50 µg/mL (inactive)
Fc1ccccc1C1NC(=S)NC2=C1CCc1ccccc12 (stereo unspecified) | 9.36 µg/mL (≈ 30.2 µM)
Cc1cc2ncn(Cc3ccccc3C)c2cc1C | 11.1 µg/mL (≈ 44.4 µM)
CCC(C(=O)O/N=C(\N)Cc1cccc2ccccc12)c1ccccc1 (stereo unspecified) | 10.1 µg/mL (≈ 29.2 µM)
Cc1cc(C)nc(/N=C(\N)Nc2ccc(OCc3ccc(Cl)cc3)cc2)n1 | 34.4 µg/mL (≈ 90.2 µM)
O=C(CCC(=O)OCc1cccc(C(=O)Oc2ccccc2)c1)Nc1cccc2ccccc12 | 12.6 µg/mL (≈ 27.8 µM)
CCOC(=O)COc1ccc(S(=O)(=O)Nc2cc(C)cc(C)c2)cc1 | 4.03 µg/mL (≈ 11.1 µM)
COc1cc(NC(=S)N2CCN(C)CC2)cc(OC)c1 | > 50 µg/mL (inactive)
Clc1ccc2[nH]c3c(c2c1)CCc1cn[nH]c1-3 | > 50 µg/mL (inactive)
Clc1ccc(OCCCCCn2ccnc2)c(Cl)c1 | 3.48 µg/mL (≈ 11.6 µM)
Cc1ccc(-c2nc(Nc3ccc(O)cc3)c3ccccc3n2)cc1 | 2.14 µg/mL (≈ 6.54 µM)
COC(=O)COc1ccc(-c2ccc(C)cc2)cc1 | 0.22 µg/mL (≈ 0.858 µM)

SMILES | IC50
Cc1ccc(Cl)cc1N1CCN(CC(O)COCC2COc3ccccc3O2)CC1 (stereo unspecified) | 5.17 µg/mL (≈ 11.9 µM)
COc1ccc(-c2csc(Nc3ncccc3C)n2)cc1 | 24.5 µg/mL (≈ 82.5 µM)
CCN(CC)CCC(=O)c1ccc(C(C)C)cc1 | 47.6 µg/mL (≈ 193 µM)
CCn1c(Sc2ncnc3ccccc23)nc2ccccc21 | 2.77 µg/mL (≈ 9.04 µM)
CCN(CC)c1ccc(NC(=O)C(C)Oc2cccc(Cl)c2)cc1 (stereo unspecified) | 6.4 µg/mL (≈ 18.5 µM)
Cc1cc2ncn(CCOc3ccccc3C)c2cc1C | 6.93 µg/mL (≈ 24.7 µM)
CC1(C)Oc2ccc3ccc(=O)oc3c2C(C=O)=C1Cl | 1.03 µg/mL (≈ 3.54 µM)
O=C(CCNc1ccc(F)cc1)c1ccco1 | 5.39 µg/mL (≈ 23.1 µM)
Cc1ccc(-c2nnc(SC3=CS(=O)(=O)c4ccccc43)o2)cc1 | > 50 µg/mL (inactive)
CCCn1c(NCc2ccc(Br)cc2)nc2ccccc21 | 4.3 µg/mL (≈ 12.5 µM)
COC(=O)c1ccc(OCC(O)CN2CCN(c3cc(Cl)ccc3C)CC2)cc1 (stereo unspecified) | 5.13 µg/mL (≈ 12.2 µM)
N#Cc1ccc(-c2nc(-c3ccccc3)c(-c3cccs3)[nH]2)cc1 | 5.89 µg/mL (≈ 18 µM)
CC(C)C1C(c2ccccc2)NC(c2ccccc2)CC1(O)C#Cc1ccccc1 (stereo unspecified) | 9.22 µg/mL (≈ 23.3 µM)
O=C(CCNc1cccc(F)c1)c1ccccc1 | 8.2 µg/mL (≈ 33.7 µM)
Cc1cccc(OCC(O)CN2CCN(CCN3C(=O)c4cccc5cccc(c45)C3=O)CC2)c1C (stereo unspecified) | 2.53 µg/mL (≈ 5.19 µM)
CCN(CC)C(=S)NC(=O)c1ccc(Cl)cc1 | 1.43 µg/mL (≈ 5.28 µM)
COc1cc(CNCCCO)cc(Cl)c1OCc1ccc(Cl)cc1Cl | 6.25 µg/mL (≈ 15.4 µM)
CCCOc1ccc(C(=O)NC(=S)Nc2ccc(C(=O)O)cc2)cc1 | 0.12 µg/mL (≈ 0.335 µM)
CCCC(=O)NC(=S)Nc1ccc(N2CCN(C(=O)c3cccs3)CC2)c(Cl)c1 | 0.61 µg/mL (≈ 1.35 µM)
Cc1ccc(C(=O)N2CCN(c3ccc(NC(=O)COc4c(C)cc(C)cc4Cl)cc3)CC2)cc1 | 8.74 µg/mL (≈ 17.8 µM)
CCOC(=O)Cn1cc(C#N)c2cccc(CC)c21 | 0.87 µg/mL (≈ 3.39 µM)
CN(C)CCSc1nc(-c2cccs2)cc(-c2ccc(F)cc2)c1C#N | 5.23 µg/mL (≈ 13.6 µM)
O=C1C(=O)N(Cc2cccc3ccccc23)c2ccc(Cl)cc21 | 21.4 µg/mL (≈ 66.6 µM)
CC(C)(C)c1ccc(C(=O)N2CCC(C(=O)N3CCN(c4cccc(Cl)c4)CC3)CC2)cc1 | > 50 µg/mL (inactive)

SMILES | IC50
COc1cc2c(cc1NC(=O)C(=O)NCCCN1CCOCC1)oc1ccccc12 | > 50 µg/mL (inactive)
Cc1nc2ccc(C(=O)OCc3cccc(F)c3)cc2nc1C | 1.68 µg/mL (≈ 5.41 µM)
CCCCOc1ccc(C2c3c(oc4ccc(Br)cc4c3=O)C(=O)N2CCCN2CCOCC2)cc1 (stereo unspecified) | 3.77 µg/mL (≈ 6.79 µM)
C#CCOc1c(Br)cc(/C=C/[N+](=O)[O-])cc1OC | 38.2 µg/mL (≈ 122 µM)
Cc1ccc(N2C(=O)c3cccc4c(N5CCN(C)CC5)ccc(c34)C2=O)c2cccnc12 | 49.3 µg/mL (≈ 113 µM)
COc1ccc(-c2cc(C(=O)Nc3ccc(C(=O)N4CCOCC4)cc3)c3cc(C)ccc3n2)cc1 | > 50 µg/mL (inactive)
CCOC(=O)c1ccc(NC(=S)Nc2cc(Cl)c(Cl)cc2Cl)cc1 | 2.72 µg/mL (≈ 6.74 µM)
CCOC(=O)c1c(NC(=S)NC(C)c2ccncc2)sc2c1CCCCCC2 (stereo unspecified) | 32.8 µg/mL (≈ 78.6 µM)
CC1(C)COC(/C=C/c2cccc([N+](=O)[O-])c2)=N1 | 11.6 µg/mL (≈ 47.1 µM)
CCOC(=O)C1CCCN(c2ncnc3c2cnn3-c2ccc(Cl)cc2)C1 (stereo unspecified) | 4.21 µg/mL (≈ 10.9 µM)
N#Cc1ccc(-c2ccc(OCC(N)=O)cc2)cc1 | < 0.1 µg/mL
CCOC(=O)/C=C/C(=O)Nc1nc(-c2ccccc2)cs1 | 0.53 µg/mL (≈ 1.75 µM)
CCc1c(C)c2ccc(OCC(=O)OC)c(C)c2oc1=O | 0.54 µg/mL (≈ 1.86 µM)
O=C(C#Cc1ccccc1)c1ccc([N+](=O)[O-])cc1 | > 50 µg/mL (inactive)
Cc1cc(C)cc(-c2nc(-c3cccnc3)no2)c1 | 47.7 µg/mL (≈ 190 µM)
CN1CCN(c2ccc(NC(=O)c3ccc(-c4ccc(Br)cc4)o3)cc2)CC1 | 2.94 µg/mL (≈ 6.68 µM)
Cc1ccc(N2CC(C(=O)Nc3ncc([N+](=O)[O-])s3)CC2=O)cc1 (stereo unspecified) | 28.3 µg/mL (≈ 81.6 µM)
Cc1ccc(OCCN2CCN(c3nc(NCc4ccco4)c4ccccc4n3)CC2)cc1 | 6.3 µg/mL (≈ 14.2 µM)
CCCN(CCC)C(=S)NC(=O)c1ccc(OC)cc1 | 2.58 µg/mL (≈ 8.76 µM)
S=C(NCCc1c[nH]c2ccccc12)Nc1ccc(Nc2ccccc2)cc1 | 2.81 µg/mL (≈ 7.27 µM)
O=C(NC1CCCCC1)c1cc2cc(Cl)cc(Cl)c2oc1=O | > 50 µg/mL (inactive)
Cc1ccc(C(=O)Nc2ccc([N+](=O)[O-])cc2)s1 | < 0.1 µg/mL
O=C(Nc1ccc(C(F)(F)F)cc1)Nc1cccc(F)c1 | 0.76 µg/mL (≈ 2.55 µM)
CCCCNCCCCCOc1ccc(Cl)cc1Cl | 4.18 µg/mL (≈ 13.7 µM)

SMILES | IC50
O=S1(=O)C=C(Sc2nc3ccccc3s2)c2ccccc21 | < 0.1 µg/mL
O=C(CSc1ccc(Br)cc1)Nc1ccc([N+](=O)[O-])cc1 | 23.6 µg/mL (≈ 64.2 µM)
Cc1ccc(Nc2nc(NCc3ccco3)c3ccccc3n2)cc1 | 1.44 µg/mL (≈ 4.36 µM)
Cc1cc(OC(F)F)ccc1NC(=O)Nc1ccc([N+](=O)[O-])cc1 | 22.9 µg/mL (≈ 67.9 µM)
Cn1c(=O)[nH]c2nnc(-c3ccccn3)nc2c1=O | > 50 µg/mL (inactive)
O=C(Nc1nccs1)c1ccc(CSc2ccccc2)o1 | 3.09 µg/mL (≈ 9.77 µM)
CCc1ccc(C(=S)Nc2ccccc2)nc1 | 2.23 µg/mL (≈ 9.2 µM)
COC(=O)COc1ccc2c(-c3ccc(OC)cc3)cc(=O)oc2c1 | 0.86 µg/mL (≈ 2.53 µM)
O=C(CN1CCN(CCN2C(=O)c3cccc4cccc(c34)C2=O)CC1)c1ccc(Cl)cc1 | 6.6 µg/mL (≈ 14.3 µM)
CCOC(=O)c1ccc(NC(=O)CSc2nnc(-c3ccco3)c(-c3ccco3)n2)cc1 | 19.7 µg/mL (≈ 43.6 µM)
COc1ccc(CCNC(=S)NC23CC4CC(CC(C4)C2)C3)cc1 | 7.85 µg/mL (≈ 22.8 µM)
COc1ccc(C(=O)/C=C/Nc2cc(Cl)ccc2O)cc1OC | 4.6 µg/mL (≈ 13.8 µM)
CC(=O)N1CCN(c2ccc(NC(=S)NC(=O)c3cc4ccccc4o3)cc2)CC1 | 2.74 µg/mL (≈ 6.49 µM)
Brc1ccc2ncnc(Nc3ccc(N4CCCC4)cc3)c2c1 | < 0.1 µg/mL
O=C1c2cccc3cccc(c23)C(=O)N1c1ccc2[nH]c(=O)[nH]c2c1 | 33 µg/mL (≈ 100 µM)
CCCCn1c(O)c(/C=C2\C=CC=N2)c(=O)[nH]c1=O | < 0.1 µg/mL
COc1cccc(CN2CCN(C(=O)Nc3ccc(Cl)c(Cl)c3)CC2)c1 | 5.13 µg/mL (≈ 13 µM)
CCOc1ccc(NC(=O)c2c(NC(=O)CNCCN3CCOCC3)sc3c2CCC3)cc1 | 1.33 µg/mL (≈ 2.81 µM)
CC(C)(C)c1ccc(-c2noc(-c3cccnc3)n2)cc1 | 4.34 µg/mL (≈ 15.5 µM)
O=[N+]([O-])c1ccc(O)c(-c2nc3ccccc3s2)c1 | > 50 µg/mL (inactive)
CC(C)(C)c1ccc(OCC(=O)Nc2ccc(F)c(Cl)c2)cc1 | 13.7 µg/mL (≈ 40.9 µM)
O=C(Nc1ccc(F)c(Cl)c1)C12CC3CCC(CC(C3)C1)C2 | < 0.1 µg/mL
Cc1sc2ncn(C(C)C(=O)OC3CCCCC3)c(=O)c2c1C (stereo unspecified) | 1.11 µg/mL (≈ 3.32 µM)
COc1ccc(NC(=O)CC23CC4CC(CC(C4)C2)C3)cc1[N+](=O)[O-] | 3.05 µg/mL (≈ 8.86 µM)

SMILES | IC50
Cc1ccnc(NC(=O)COc2ccc([N+](=O)[O-])cc2)c1 | 0.43 µg/mL (≈ 1.5 µM)
CCCCc1ccc(N/C(N)=N\c2nc(C)cc(C)n2)cc1 | 23.3 µg/mL (≈ 78.2 µM)
CN1CCN(C(=S)NC(=O)c2ccc(-c3ccccc3)cc2)CC1 | 1.04 µg/mL (≈ 3.06 µM)
Cc1cc(C)n(-c2nc3sc4c(c3c(=O)[nH]2)CCCC4)n1 | 24.4 µg/mL (≈ 81.1 µM)
COC(=O)C(Oc1ccc2c(c1)oc(=O)c1cc(OC)ccc12)c1ccccc1 (stereo unspecified) | 1.32 µg/mL (≈ 3.38 µM)
Brc1ccc(Nc2nc(-c3ccccn3)cs2)cc1 | 0.13 µg/mL (≈ 0.391 µM)
COC(=O)COc1cccc(NC(=O)c2ccc(Cl)cc2)c1 | 0.21 µg/mL (≈ 0.657 µM)
COc1ccc(C(=O)NC(=S)NNC(=O)c2ccc(OC)c(OC)c2)cc1Br | < 0.1 µg/mL
O=C(c1cccc(Cl)c1)N1N=C(c2ccc(Cl)cc2)CC1(O)C(F)(F)F (stereo unspecified) | 3.82 µg/mL (≈ 9.47 µM)
COc1ccc(-c2c(C)oc3cc(OCC(=O)OC(C)C)ccc3c2=O)cc1OC | 1.36 µg/mL (≈ 3.3 µM)
CC1CCN(CCNC(=S)Nc2ccc(F)cc2)CC1 | 1.54 µg/mL (≈ 5.21 µM)
O=C(O)c1ccc(NC(CC(=O)c2ccccc2)c2ccc(Br)cc2)cc1 (stereo unspecified) | 7.58 µg/mL (≈ 17.9 µM)
CC(C)(C)c1ccc(C(=O)NC(=S)NCc2cccnc2)cc1 | 2.47 µg/mL (≈ 7.54 µM)
COC(=O)COc1ccc(NC(=O)COc2ccc(C)c(C)c2)cc1 | 3.35 µg/mL (≈ 9.76 µM)
COc1cccc(CSc2nc3c(c(-c4ccccc4)c2C#N)CN(C)CC3)c1 | 22.8 µg/mL (≈ 56.9 µM)
CCOC(=O)c1sc(NC(=S)NC2CCN(Cc3ccccc3)CC2)c(C(=O)OCC)c1C | > 50 µg/mL (inactive)
S=C(NCCc1ccccc1)NCCc1ccc(Cl)cc1 | 9.95 µg/mL (≈ 31.2 µM)
COc1ccc(CNc2ccc3c(c2)ncn3-c2ccccc2)cc1OC | 8.63 µg/mL (≈ 24 µM)
CCOC(=O)C(C)Oc1ccc2c(=O)c(Oc3ccccc3Cl)coc2c1 (stereo unspecified) | 8.87 µg/mL (≈ 22.8 µM)
COCCNS(=O)(=O)c1ccc(-c2ccc(C)cc2)cc1 | 0.49 µg/mL (≈ 1.6 µM)
